Assay results from US9617289B2, “RSV antiviral compounds” (JANSSEN R&D IRELAND, priority 2012, dated 2017).
Counter-ions that a name gives are not always drawn.

Tested on: not given
Assay: not given
Details: not given

In the case of `N#CCCCn1c(CN2C(=O)C3(CCNCC3)c3ccncc32)cc2cc(Cl)ccc21` (as salt: hydrochloride) [Compound 78, 4-(5-chloro-2-((2′-oxospiro[piperidine-4,3′-pyrrolo[2,3-c]-pyridin]-1′(2′H)-yl)methyl)-1H-indol-1-yl)butanenitrile hydrochloride], the melting point is reported as 82.02 °C.

Tested on: rgRSV224 virus
Assay: Antiviral activity: inhibition of rgRSV224 (GFP-expressing RSV) replication in HeLa cells
Assay type: cell-based, respiratory syncytial virus
Details: human respiratory syncytial virus, HeLa, 72 h, read-out: RSV-wt_pEC50, rgRSV224 (MOI=0.02) in HeLa cells, GFP expression three days post-virus exposure
Summary of the method: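 HeLa cells infected with GFP-expressing rgRSV224 at MOI 0.02 alongside 4-fold compound dilutions in duplicate (0.5% DMSO). Incubated 3 days at 37 °C; EC50 taken as 50% inhibition of GFP expression by laser microscopy. CC50 measured in parallel uninfected cells by ATP content after 3 days; SI = CC50/EC50.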

Point of comparison: `O=C(C(O)CO)N1CCC2(CC1)C(=O)N(Cc1cc3cc(Cl)ccc3n1CCCCF)c1cnccc12` (centres unmarked) [Compound 167, 1′-{[5-Chloro-1-(4-fluorobutyl)-1H-indol-2-yl]methyl}-1-(2,3-dihydroxypropanoyl)spiro[piperidine-4,3′-pyrrolo[2,3-c]pyridin]-2′(1′H)-one], EC50 0.123 nM. Against it:
- O=C1N(Cc2cc3cc(Cl)ccc3n2CCCCF)c2cnccc2C12CCNCC2 [Compound 162] — 37-fold higher, 4.57 nM
- CC(C)(C)OC(=O)N1CC2(C1)C(=O)N(Cc1cc3cc(Cl)ccc3n1CCCS(C)(=O)=O)c1ccccc12 [Compound 163, tert-Butyl 1′-({5-chloro-1-[3-(methylsulfonyl)propyl]-1H-indol-2-yl}methyl)-2′-oxo-1′,2′-dihydro-1H-spiro[azetidine-3,3′-indole]-1-carboxylate] — 1.6-fold higher, 0.2 nM
- N#CCCCn1c(CN2C(=O)C3(CN(C(=O)C(O)CO)C3)c3ccccc32)cc2cc(Cl)ccc21 (centres unmarked) [Compound 165, 4-(5-chloro-2-((1-(2,3-dihydroxypropanoyl)-2′-oxospiro[azetidine-3,3′-indolin]-1′-yl)methyl)-1H-indol-1-yl)butanenitrile] — within 1.5-fold, 0.145 nM
- CNC(=O)O[C@H]1C[C@@]2(C1)C(=O)N(Cc1nc3cc(Cl)ccc3n1CCCC#N)c1ccccc12 [Compound 168, (1r,3r)-1′-((5-chloro-1-(3-cyanopropyl)-1H-benzo[d]imidazol-2-yl)methyl)-2′-oxospiro[cyclobutane-1,3′-indolin]-3-yl methylcarbamate] — 3.5-fold lower, 0.0347 nM
- CC(=O)NS(=O)(=O)N1CC2(C1)C(=O)N(Cc1nc3cc(Cl)ccc3n1CCCC#N)c1ccccc12 [Compound 170, N-[(1′-{[5-Chloro-1-(3-cyanopropyl)-1H-benzimidazol-2-yl]methyl}-2′-oxo-1′,2′-dihydro-1H-spiro[azetidine-3,3′-indol]-1-yl)sulfonyl]acetamide] — 2.2-fold higher, 0.269 nM
- N#CCCCn1c(CN2c3ccccc3[C@]3(C[C@@H](OC(=O)NC4CC4)C3)C2=O)nc2cc(Cl)ccc21 [Compound 173, (1r,3r)-1′-((5-chloro-1-(3-cyanopropyl)-1H-benzo[d]imidazol-2-yl)methyl)-2′-oxospiro[cyclobutane-1,3′-indolin]-3-yl cyclopropylcarbamate] — 5.5-fold lower, 0.0224 nM
- CC1CC2(CC(C)O1)C(=O)N(Cc1nc3cc(Cl)ccc3n1CCCS(C)(=O)=O)c1cnccc12 (centres unmarked) [Compound 174, 1′-({5-Chloro-1-[3-(methylsulfonyl)propyl]-1H-benzimidazol-2-yl}methyl)-2,6-dimethyl-2,3,5,6-tetrahydrospiro[pyran-4,3′-pyrrolo[2,3-c]pyridin]-2′(1′H)-one] — 140-fold higher, 17.8 nM
- CC(C)(O)C(=O)N1CC2(C1)C(=O)N(Cc1nc3cc(Cl)ccc3n1CCCCO)c1ccccc12 [Compound 175, 1′-{[5-Chloro-1-(4-hydroxybutyl)-1H-benzimidazol-2-yl]methyl}-1-(2-hydroxy-2-methylpropanoyl)spiro[azetidine-3,3′-indol]-2′(1′H)-one] — 1.7-fold lower, 0.0741 nM
- O=C(NS(=O)(=O)N1CCC2(CC1)C(=O)N(Cc1cc3cc(Cl)ccc3n1CCCCF)c1cnccc12)C1CC1 [Compound 184, N-[(1′-{[5-Chloro-1-(4-fluorobutyl)-1H-indol-2-yl]methyl}-2′-oxo-1′,2′-dihydro-1H-spiro[piperidine-4,3′-pyrrolo[2,3-c]pyridin]-1-yl)sulfonyl]cyclopropanecarboxamide] — 1.8-fold higher, 0.219 nM
